This test deals with IL15 signaling pathway (pSTAT5, pS6). Briefly: phospho-flow cytometry assay of IL15 expression and signaling. The settings on record: regulated mbIL15 TILs, 18 hours, 4 donors. It counts as cell-based, human. As to the method: Pre-REP TILs were prepared similarly to the methods of Example 1-3 and 9, and unengineered and mbIL15 TIL generated accordingly as described in Examples 1-3 and 9. Engagement of the IL15 signaling pathway results in phosphorylation of signal transducers downstream, including the transcription factor protein STATS and ribosomal protein S6. […] Next, the regulated mbIL15 TILs were regulated for 18 hours in the presence of a range of concentrations of ACZ including 0.1, 1, 2.5, 5, 10, 25, 100 μM, as well as vehicle control. The regulated mbIL15 TILs were then collected for staining and FACS analysis.
Briefly, cells were stained using antibodies for CD3, CD4, CD8, IL15 and a Live/Dead marker. Then cells were fixed in 2% formaldehyde (BD Cytofix) and permeabilized using a methanol-based buffer (BD Phospho Perm III Buffer) before staining with antibodies specific for phosphorylated STATS (Biolegend) and S6 (Cell Signaling Technology). Cells were acquired on the BD Symphony and analyzed using FlowJo software.
In order to compare different strategies for IL15 expression, TILs were utilized that constitutively express mbIL15 and regulated mbIL15 TILs. Cryopreserved unengineered TILs, constitutive mbIL15 TILs, and regulated mbIL15 TILs, from three human donors were thawed and then rested in ACZ-free media for 24 hours. […] Cells were acquired on the BD Fortessa and analyzed using FlowJo software.

As to `CC(=O)Nc1nnc(S(N)(=O)=O)s1` [ACZ, acetazolamide], the “relationship between ACZ and IL15 expression and signaling (pSTAT5, pS6)” value is on record as “dose-dependent relationship”.
